Article PMC6273432, “Novel Selective Butyrylcholinesterase Inhibitors Incorporating Antioxidant Functionalities as Potential Bimodal Therapeutics for Alzheimer’s Disease” (Molecules, 2016)
Where “and” joins values, the source holds several entries; their conditions need not be identical. Equal values may be shown once. Read-outs that look alike come from different tables or passages of the source.

Assays:
AChE from electric eel = molecular target: T1, AChE from electric eel (Electrophorus electricus, UniProt O42275); test: Ellman assay, AChE inhibition; format: biochemical; conditions: for inhibition at 100 µM: read-out: AChE %I at 100 μM; for IC50: inhibitor added 30 min before
T1 construct: AChE from electric eel; from tissue
T1 sequence (O42275 24-633): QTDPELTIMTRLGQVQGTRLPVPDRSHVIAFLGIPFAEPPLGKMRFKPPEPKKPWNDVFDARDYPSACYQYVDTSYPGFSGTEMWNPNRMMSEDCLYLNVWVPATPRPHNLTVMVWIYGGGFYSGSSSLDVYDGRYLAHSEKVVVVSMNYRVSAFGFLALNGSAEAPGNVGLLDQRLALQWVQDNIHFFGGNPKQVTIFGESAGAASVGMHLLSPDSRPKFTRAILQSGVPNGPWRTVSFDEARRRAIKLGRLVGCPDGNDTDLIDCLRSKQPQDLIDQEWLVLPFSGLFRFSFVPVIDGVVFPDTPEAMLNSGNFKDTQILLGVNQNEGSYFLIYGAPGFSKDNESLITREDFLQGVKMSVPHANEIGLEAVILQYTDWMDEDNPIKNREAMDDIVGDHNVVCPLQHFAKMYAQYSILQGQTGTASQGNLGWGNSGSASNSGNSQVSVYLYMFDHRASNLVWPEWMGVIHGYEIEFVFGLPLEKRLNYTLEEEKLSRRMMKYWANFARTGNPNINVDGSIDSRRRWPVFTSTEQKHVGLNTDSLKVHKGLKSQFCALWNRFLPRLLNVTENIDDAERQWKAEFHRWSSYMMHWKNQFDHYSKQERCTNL
Method: (§1) Inhibitory activities of the isosorbide-2-carbamates bearing a lipoate ester (7a–d), a ferulate ester (8a–d) ester or 5-unsubstituted compounds (6a–d) was measured using the standard Ellman spectrophotometric method using AChE from electric eel or BuChE purified from human plasma with acetylthiocholine or butyrylthiocholine as appropriate (Table 1). […] These values are in the potency range of clinically used cholinesterase inhibitors. […] In most cases, it was not possible to achieve a maximal inhibition of AChE because the solubility threshold was lower than the concentration required for maximal inhibition. In previous studies, we noticed that phenyl carbamates of isosorbide are relatively weak inhibitors of BuChE compared with the benzyl and alkyl carbamates, but that AChE is relatively tolerant of isosorbide phenyl carbamates. We published a paper showing that isosorbide-2,5-diaryl esters are moderately potent substrate-inhibitors of AChE [25]. […] The effect of (appropriate) 5-ester substitution in the series of isosorbide compounds already published is to increase potency by promoting affinity in the pre-carbamylation state, reducing the pseudo Michaelis constant for the carbamate substrate (referred to as Kc in carbamylation literature). When the intrinsic affinity of the substrate carbamate is higher, there is a relatively greater proportion of the unimolecular E. carbamate complex. In the present case, the anti-oxidant ester functionality directly contributes to potency by increasing substrate affinity. […] Indeed, ester hydrolysis at the isosorbide C-5, which is slow, would produce the ferulic acid or lipoic acid byproduct.
(§2) Cholinesterase activity was measured using the Ellman spectrophotometric method. HuBuChE activity was measured in replicate samples using a 96-well plate reader. The total volume of test solution in each well was 250 μL. This consisted of 25 μL of plasma solution, 150 μL of phosphate buffer pH 8.0, 25 μL of DTNB solution (0.5 mM), and 25 μL of acetonitrile:distilled water (1:1). The 96-well plate was incubated for 30 min before 25 μL of butyrylthiocholine iodide (BTCI) solution (0.5 mM) was added, and the reaction was measured at 405 nm over 5 min using an Anthos bt2 plate reader. For the determination of AChE activity, 25 μL of electric eel AChE solution and 25 μL of acetylthiocholine iodide (ATCI) solution were used instead of the plasma solution and BTCI solution. For determination of enzyme inhibition, 25 μL of an inhibitor solution was added to the test solution instead of the acetonitrile:water (1:1) solution. Inhibitors were added 30 min before determination of remaining enzyme activity. IC50 values were calculated using GraphPad Prism 4.02 software (GraphPad Software Inc., La Jolla, CA, USA).

[1] = Oxygen radical absorbance capacity (ORAC) assay; format: physicochemical; conditions: for ORAC antioxidant capacity: TE = 1 equals trolox
Method: The antioxidant capacity of 7d and 8a was assessed directly using the oxygen radical absorbance capacity (ORAC) assay, in which the physicochemical ability of the test compounds to scavenge radicals and quench fluorescein […] is quantified and related to so-called trolox equivalents (TE = 1 represents the antioxidant equivalence to trolox, a water-soluble Vitamin E derivative). Compound 7d was 0.163 ± 0.146, 8a, 0.635 ± 0.020, thus showing a very weak ORAC for the lipoate and a weak, but significant, effect for the ferulic acid derivative. The lack of activity of the lipoate in the non-cellular ORAC assay is not surprising as its anti-oxidant effects are mainly related to cellular or mitochondria related processes.
Compounds were assessed for antioxidant capacity using the standard ORAC assay performed as described previously.

[2] = molecular target: T2, BuChE purified from human plasma (Homo sapiens, UniProt P06276); test: Ellman assay, BuChE inhibition; format: biochemical; conditions: for Selectivity: IC50 AChE/IC50 BuChE, 100 µM used for AChE where % inhibition at 100 µM was <50%; for IC50: n = 3
T2 construct: BuChE purified from human plasma; from tissue; host or cells: human plasma
T2 sequence (P06276 29-602): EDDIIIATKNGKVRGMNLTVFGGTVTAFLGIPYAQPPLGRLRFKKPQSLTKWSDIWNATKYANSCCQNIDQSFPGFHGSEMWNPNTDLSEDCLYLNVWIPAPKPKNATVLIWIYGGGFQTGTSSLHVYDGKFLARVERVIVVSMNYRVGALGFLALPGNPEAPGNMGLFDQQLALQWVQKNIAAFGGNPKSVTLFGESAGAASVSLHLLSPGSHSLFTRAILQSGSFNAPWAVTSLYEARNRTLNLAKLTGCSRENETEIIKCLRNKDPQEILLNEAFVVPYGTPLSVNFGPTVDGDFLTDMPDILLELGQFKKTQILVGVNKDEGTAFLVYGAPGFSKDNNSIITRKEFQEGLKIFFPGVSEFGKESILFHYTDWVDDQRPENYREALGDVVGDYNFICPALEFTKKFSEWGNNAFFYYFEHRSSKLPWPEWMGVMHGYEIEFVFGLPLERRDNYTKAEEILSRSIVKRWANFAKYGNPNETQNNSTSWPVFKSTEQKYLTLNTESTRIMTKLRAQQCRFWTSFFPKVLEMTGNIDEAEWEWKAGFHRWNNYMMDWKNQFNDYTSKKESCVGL
Method: as §1, §2

BuChE = conditions: cited from earlier work
[3] = tested on: HT-22 murine hippocampal cell line; test: cells; format: cell-based; conditions: glutamate 5 mM
Method: (§3) The neuroprotective properties of the compounds were assessed using the HT-22 murine hippocampal cell line. This is an immortalized cell line which has become widely used in recent years to study oxidative stress induced neuronal cell death. The cell line lacks ionotropic glutamate receptors but is sensitive to glutamate cytotoxicity via non-receptor mediated pathway(s) that are to a significant extent propagated by reactive oxygen species. The cell line appeared to be a good cellular model for measuring an anti-oxidant mediated neuroprotective in vitro effect of the compounds [26, 27, 28].
(§4) Test compounds in DMSO solution (0.1%) were added to HT-22 cell culture for (24 h), using four repeats in three independent experiments. […] Lipoic acid and ferulic acid were also non-toxic in the same concentration range. Next, the neuronal cell culture was treated with glutamate (5 mM) which caused about 90% cell death as reflected in the MTT assay. Quercetin served as positive control and caused rescue of cell death to around 80% cell viability at 25 µM. Cells were co-treated with test compounds 7a–d and 8a–d at 1, 5, 10 and 25 µM in four repeats and three independent experiments. Lipoic and ferulic acid were tested in parallel experiments in the same concentration range. Lipoic acid was active in the range 10–25 µM but ferulic acid was not active (data not shown). […] The reasons for this unexpected variation in efficacy is not clear but may be due to (intra)cellular access.
This test was performed as reported before. Briefly, HT-22 cells were seeded in 96-well plates at a density of 5 × 10^3 per well and cultured for 24 h. Subsequently, cells were incubated for another 24 h either with medium or test compounds with potential cytoprotective activity either in the absence (to test for toxic effects) or the presence (to test for the protective potential against glutamate induced oxidative stress) of 5 mM glutamate. MTT solution (4 mg/mL in PBS) was diluted 1:10 with medium and the mixture was added to the wells after removal of the previous medium. The plates were then incubated for another 3 h. Then, the supernatant was removed and 100 µL of lysis buffer (10% SDS, pH 4.1) were added to the wells. Absorbance at 560 nm was determined on the next day using a multiwell plate photometer (Spectra Fluor Plus, Tecan, Crailsheim, Germany). The results of these cell viability assays were expressed as percentages relative to untreated control cells. All compounds were dissolved in DMSO and diluted with fresh medium, with the DMSO concentration always below 0.1% (v/v).
Data of all MTT tests were expressed as means ± SD of at least three independent experiments (in quadruplicates). Data were subjected to one-way ANOVA followed by Dunnett’s multiple comparison post-test using GraphPad Prism 5 Software. (Levels of significance ** p < 0.01; *** p < 0.001).

[4] = tested on: HT-22 murine hippocampal cell line; format: cell-based; conditions: 24 h, no glutamate; for toxicity / reduction in cell viability, compound alone: 1–25 µM
Method: as §3, §4
This test was performed as reported before. Briefly, HT-22 cells were seeded in 96-well plates at a density of 5 × 10^3 per well and cultured for 24 h. […] Absorbance at 560 nm was determined on the next day using a multiwell plate photometer (Spectra Fluor Plus, Tecan, Crailsheim, Germany). The results of these cell viability assays were expressed as percentages relative to untreated control cells. […]

human BuChE = human BuChE (Homo sapiens, UniProt P06276); test: Inhibitor kinetics, time dependence of BuChE carbamylation; format: biochemical; conditions: r^2 > 0.99
Sequence of human BuChE (P06276 29-602): as above
Method: Solutions of human BuChE were treated with 7a in the range of 1–50 µM. At successive time intervals, aliquots were removed and the carbamylation reaction stopped by dilution. Residual enzyme activity at each time point and each inhibitor concentration level was estimated by adding the sample to a solution containing butyrylthiocholine substrate.
In order to monitor enzyme carbamylation over time, a 96-well plate was used, with all assay mixtures being made up to a final concentration of 250 μL for monitoring of absorbance at 412 nm. At time 0, 150 μL of inhibitor, at various concentrations, was added to an equal volume of enzyme. Thereafter, at successive time points, 50 μL aliquots were removed from these wells and added to wells containing 200 μL DTNB and BTCI in phosphate buffer pH 8.0. Hydrolysis of substrate was monitored by examining the changes in absorbance in each well at 412 nm over the following 30 s. Negative controls were run alongside the test solutions to take account of non-enzymatic hydrolysis, while positive controls gauged the rate of the uninhibited reaction. At least two replicate wells were run for each concentration of inhibitor. Plots of percentage inhibition over time were prepared using GraphPad Prism 4.03. A first order inhibition constant, kobs was obtained for each concentration of inhibitor by non-linear regression using an exponential decay function.

[5] = inhibitor added 30 min before, read-out: BChE IC50
[6] = read-out: BChE pIC50 ± SEM (converted)

Row | Structure (SMILES) | inhibition at 100 µM (AChE from electric eel; 100 μM, n = 3) [%] | IC50 [2, 5] [µM] | IC50 [2, 6] [µM] | further results
1 | COc1cc(/C=C/C(=O)O[C@@H]2CO[C@H]3[C@@H]2OC[C@@H]3OC(=O)NCc2ccccc2)ccc1O [Compound 8a, Isosorbide-2-benzylcarbanate-5-ferulate] | 25.2 | 1.82 | 1.62 | ORAC antioxidant capacity [1]: 0.635 ± 0.020 Trolox Equivalent; Selectivity [2]: >55
2 | CCNC(=O)O[C@H]1CO[C@H]2[C@@H]1OC[C@H]2O [Compound 6d, Isosorbide-2-ethylcarbamate] | 22 | 46.9 | 46.8 | 
3 | O=C(NCc1ccccc1)OC1COC2C(OC(=O)c3ccccc3O)COC12 (centres unmarked) [Isosorbide-2-benzyl carbamate-5-salicylate] |  |  |  | IC50 (BuChE; read-out: IC50 for BuChE): < 0.00015 µM
4 | O=C(CCCCC1CCSS1)O[C@@H]1CO[C@H]2[C@@H]1OC[C@@H]2OC(=O)Nc1ccccc1 (some centres unmarked) [Compound 7b, Isosorbide-2-phenylcarbamate-5-lipoic acid ester] | 18.8 | 13.3 | 13.2 | Selectivity [2]: >7.5; neuroprotective effect ([3]; 1–25 µM): neuroprotective effect could not be observed
5 | O=c1c(O)c(-c2ccc(O)c(O)c2)oc2cc(O)cc(O)c12 [Quercetin, quercetin, reference compound] |  |  |  | viability at 25 µM ([3]; Mus musculus, HT-22, compound 25 µM, read-out: cell viability after rescue from glutamate): ~80%
6 | CCNC(=O)O[C@H]1CO[C@H]2[C@@H]1OC[C@H]2OC(=O)CCCCC1CCSS1 (some centres unmarked) [Compound 7d, Isosorbide-2-ethylcarbamate-5-lipoic acid ester] | 84.1 | 5.71 | 5.75 | ORAC antioxidant effect [1]: not active; ORAC antioxidant capacity [1]: 0.163 ± 0.146 Trolox Equivalent; neuroprotective effect ([3]; 1–25 µM): showed some effects
7 | O=C(NCc1ccccc1)O[C@H]1CO[C@H]2[C@@H]1OC[C@H]2O [Compound 6a, Isosorbide-2-benzylcarbamate] |  | 25.8 |  | IC50 (AChE from electric eel; n = 3): 37.5 ± 7.4 µM; Selectivity [2]: 1.45
8 | CCCCNC(=O)O[C@H]1CO[C@H]2[C@@H]1OC[C@H]2OC(=O)/C=C/c1ccc(O)c(OC)c1 [Compound 8c, Isosorbide-2-butylcarbanate-5-ferulate] |  | 0.43 | 0.389 | 
9 | O=C(O)CCCCC1CCSS1 (centres unmarked) [Lipoic acid, lipoic acid, reference compound] |  |  |  | toxicity / reduction in cell viability, compound alone [4]: non-toxic; neuroprotective effect ([3]; compound 5 µM): not effective
10 | O=C(CCCCC1CCSS1)O[C@@H]1CO[C@H]2[C@@H]1OC[C@@H]2OC(=O)NCc1ccccc1 (some centres unmarked) [Compound 7a, Isosorbide-2-benzylcarbamate-5-lipoic acid ester] | 30.8 | 0.15 |  | pseudo first order rate constant of BuChE inhibition (human BuChE; inhibitor 10 µM): 0.068 min⁻¹; pseudo first order rate constant of BuChE inhibition (human BuChE; inhibitor 50 µM): 0.198 min⁻¹; Selectivity [2]: >667; concentration range with neuroprotective effect ([3]; tested at 1, 5, 10 and 25 µM): 5 to 25 µM and > 5 µM
11 | COc1cc(/C=C/C(=O)O[C@@H]2CO[C@H]3[C@@H]2OC[C@@H]3OC(=O)Nc2ccccc2)ccc1O [Compound 8b, Isosorbide-2-phenylcarbanate-5-ferulate] |  | 29.2 | 26.3 | IC50 (AChE from electric eel; n = 3): 27.1 ± 11.3 µM; Selectivity [2]: 0.92
12 | CCCCNC(=O)O[C@H]1CO[C@H]2[C@@H]1OC[C@H]2OC(=O)CCCCC1CCSS1 (some centres unmarked) [Compound 7c, Isosorbide-2-butylcarbamate-5-lipoic acid ester] | 68.7 | 0.17 | 0.209 | neuroprotective effect ([3]; 1–25 µM): showed some effects
13 | CCCCNC(=O)O[C@H]1CO[C@H]2[C@@H]1OC[C@H]2O [Compound 6c, Isosorbide-2-butylcarbamate] |  | 28 | 28.2 | inhibition at 100 µM (AChE from electric eel): 30%
14 | O=C(NCc1ccccc1)O[C@H]1CO[C@H]2[C@@H]1OC[C@H]2OC(=O)c1ccccc1 [Compound 1] |  |  |  | IC50 (BuChE; read-out: IC50 BuChE): 0.0043 µM
15 | CCNC(=O)O[C@H]1CO[C@H]2[C@@H]1OC[C@H]2OC(=O)/C=C/c1ccc(O)c(OC)c1 [Compound 8d, Isosorbide-2-ethylcarbanate-5-ferulate] |  | 95 | 95.5 | reduction in cell viability, compound alone ([4]; 25 µM): significant
16 | COc1cc(/C=C/C(=O)O)ccc1O [Ferulic acid, ferulic acid, reference compound] |  |  |  | toxicity / reduction in cell viability, compound alone [4]: non-toxic; neuroprotective effect ([3]; 1–25 µM): not active
17 | O=C(Nc1ccccc1)O[C@H]1CO[C@H]2[C@@H]1OC[C@H]2O [Compound 6b, Isosorbide-2-phenylcarbamate] | 25.3 | > 100 |  | 
